Columns and labels:
[1] = system: human colon adenocarcinoma sections; assay: Binding of fluorescently labeled F. nucleatum to human colon tissue sections / TMA; details: 300 mM GalNAc
Method: Tissue Microarray Analysis—Colon cancer tissue array CO2601 (US Biomax) and array CO809a (US Biomax) were used in these studies. Details about the cases for each core on the array are available on the US Biomax Web site.
Immunofluorescence and Section Preparation—Fixed tissue sections were stained with H&E or processed for immunofluorescence microscopy. Sections were blocked and incubated with fluorescent PNA or fluorescent bacteria and imaging analysis are as described in Abed et al. 2016. ibid, Supplemental Experimental Procedures. GalNAc removal was performed by incubating sections with O-glycanase.; see Supplemental Experimental Procedures for experimental details.

[2] = system: erythrocytes; assay: Hemagglutination assay; format: cell-based; details: bacteria preincubated with 25 mM GalNAc
Method: Hemagglutination Assays—Hemagglutination assays were performed as previously described (Coppenhagen-Glazer et al., 2015, ibid). For inhibition assays, washed bacteria were preincubated with 25 mM GalNAc (Sigma-Aldrich) for 30 min prior to incubation with erythrocytes.

[3] = system: high and intermediate Gal-GalNAc-expressing CRC cell lines (HCT116, CT26, RKO); assay: Flow cytometry attachment and GalNAc competition assays, high and intermediate Gal-GalNAc-expressing lines; format: cell-based, human and mouse; details: p=0.04167
Method: Flow Cytometry and Competition Assays—FITC-labeled F. nucleatum were incubated with cells at a MOI of 10 for 30 min at room temperature. FITC-labeled PNA lectin (Sigma-Aldrich) was incubated at a final concentration of 140 nM per 2.5×10^5 cells. For competition experiments, bacteria or PNA was incubated with GalNAc (concentration range 0, 50, 100, and 300 mM) for 30 min prior to incubation with cells. Flow cytometry methods and analysis are as described in Abed et al. 2016. ibid, Supplemental Experimental Procedures.

With `CC(=O)N[C@H]1C(O)O[C@H](CO)[C@H](O)[C@@H]1O` (stereo partly shown) [GalNAc] the “inhibition of binding of F. nucleatum ATCC 23726 to human CRC tissue sections” value [1] was “inhibits binding”, the “inhibition of CTI-2 hemagglutination” value [2] was “inhibited” and the “inhibition of F. nucleatum ATCC 23726 binding to cells” value ([3]; GalNAc 0, 50, 100, 300 mM) was “inhibited by GalNAc in a statistically significant, dose-dependent manner”. For the same compound, the “inhibition of CTI-2 binding to cells” value ([3]; soluble GalNAc 0-300 mM) was “inhibited by the addition of soluble GalNAc in a dose-dependent manner”.
